# Assay results published in patent US20040024043A1, “Method for treating cognitive disorders” (priority 2002, published 2004).
# “Also recorded” adds a separate entry of the source.
# How the values were obtained:
# [1] = Randomized, double-blind, placebo-controlled 12-week efficacy study (NPI, CGIC, ADAS-cog, MMSE, CANTAB, ADCS-ADL); format: in vivo, patients; conditions: 50 mg BID 2 weeks then 100 mg BID 10 weeks
# Source text: A randomized, double-blind, placebo-controlled study is done to measure the efficacy of the (+) phenserine tartrate or formation as in Example 6 in given daily over twelve (12) weeks, in 60 patients diagnosed as having symptoms similar to those caused by Alzheimer's disease (PAD). In this study there was a total of 60 eligible patients with PAD whose primary language is English, and the patients constituted male and female patients between the ages of 50 and 85 years.
# Forty patients will receive two weeks of PT and a 50 mg BID dose level, at which time their dose will be escalated to 100 mg BID, where it will remain for the final ten (10) weeks. Concurrently, twenty patients assigned to placebo medication receive matched placebo capsules for the entire 12 week duration of the study. A sufficient number of potential patients are screened to ensure enrollment of 60 eligible cases.
# All study participants were evaluated prior to the study (First Level) and periodically throughout using the following standard efficacy tests;
# NPI (Neuropsychiatric Inventory,
# CGIC (Clinician's Global Impression of Change)
# ADAS-cog (Alzheimer's Disease Assessment Scale—cognitive subscale)
# MMSE (Mini-Mental State Exam)
# CANTAB (Cambridge Neuropsychological Test Automated Battery—
# ADCS-ADL (Activities of Daily Living)
# acetylcholinesterase [2] = biological target: T1, acetylcholinesterase (Homo sapiens, UniProt P22303); conditions: compared with negative enantiomer phenserine; Pei, Greig et al. 1995; cited from earlier work
# Target sequence in this assay (P22303 32-614): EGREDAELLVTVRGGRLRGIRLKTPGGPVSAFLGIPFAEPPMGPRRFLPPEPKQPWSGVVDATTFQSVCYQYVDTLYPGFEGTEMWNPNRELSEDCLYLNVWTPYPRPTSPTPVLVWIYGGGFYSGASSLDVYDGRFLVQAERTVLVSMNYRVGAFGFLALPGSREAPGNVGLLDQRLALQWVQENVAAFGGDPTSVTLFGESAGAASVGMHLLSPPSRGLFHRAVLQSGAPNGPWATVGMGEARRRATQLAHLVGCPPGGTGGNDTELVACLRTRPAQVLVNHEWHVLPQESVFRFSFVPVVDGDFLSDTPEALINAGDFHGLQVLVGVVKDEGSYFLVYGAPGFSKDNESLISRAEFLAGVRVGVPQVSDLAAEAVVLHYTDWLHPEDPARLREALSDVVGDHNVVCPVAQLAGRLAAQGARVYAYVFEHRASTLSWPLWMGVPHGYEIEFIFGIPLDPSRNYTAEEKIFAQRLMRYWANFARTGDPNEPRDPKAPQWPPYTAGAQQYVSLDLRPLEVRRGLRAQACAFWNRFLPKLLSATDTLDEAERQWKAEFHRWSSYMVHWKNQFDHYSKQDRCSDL
# [3] = test system: βAPP levels in SK-N-SH cells; assay: βAPP levels by Western blot in neuroblastoma cells; format: cell-based; conditions: 0.5 μM to 50 μM, various time intervals up to 16 hours
# Protocol: (§1) The (+) enantiomer of formula I prepared in Example 2 was tested against its phenserine with respect to controlling β-APP levels in and the resulting toxic amyloid protein (Aβ protein) derived from the β-APP-protein by the procedure disclosed in the Shaw et al. Proc. Nat. Acad. Sci. USA (2001), 98 (13), 7605-7610. Pages […] except that the test given below included (+) enantiomer of phenserine as well as phenserine itself so that phenserine and its (+) enantiomer were tested side by side for their effect in reducing the β-APP and Aβ-proteins. The methodology of Shaw et al for carrying out these tests is summarized as follows:
# (§2) Drug treatment: SK-N-SH neuroblastoma cells were cultured on 60 mm dishes at a concentration of 3×10^6 cells, and SH-SY-5Y neuroblastoma cells were plated in 100 mm dishes at a concentration of 3×10^5 cells. The cells were allowed to grow in complete media (10% FBS, 2 mM glutamine in DMEM) for 3 to 4 days until they reached 70% confluence. To start the experiment, spent media were removed and replaced with fresh media (DMEM+0.5% FBS) containing 0, 5 or 50 μM of either (−)- or (+)-phenserine, and cells were incubated at 37 C, 5% CO2 for the specific times indicated.
# Lysate preparation: At each time point, the spent medium was collected and stored at −70 C for later analysis of secretory βAPP levels. Cell lysates were prepared as reported previously (Lahiri et al., 1997 and 1998). Protein levels of the supernatant were analyzed by the Bradford protein assay (BioRad, Mellville, N.Y.).
# Western Blot: Fifteen μg of protein from each sample was laded onto a 10% NuPAGE Bis-Tris gel in 1× NuPAGE MOPS SDS running buffer (NOVEX, San Diego, Calif.) and the proteins separated at 200 V for 45 min. The gels then were transferred onto nitrocellulose at 25 V for 1.5 h. […] Equivalent loading of samples was determined by Ponceau S staining (Sigma, St. Louis, Mo.). Densimetric quantification of the chemiluminesence of blots was undertaken by using a […] and NIH-IMAGE (version 4.1).
# [4] = test system: Aβ protein levels in SK-N-SH cells; assay: Total Aβ assay (ELISA) in neuroblastoma cell cultures; format: cell-based; conditions: especially after 10 hours
# Protocol: as §1, §2
# Total Aβ Assay: Total Aβ peptide levels in SH-SY-5Y and SK-N-SH cultured samples were assayed by a sensitive ELISA (Suzuki et al., 1994). For total Aβ measurements, the a sandwich immunoassay with rabbit polyclonal antibody to residues 1-40 residues of Aβ as a capture antibody for all species of Aβ peptide Aβ1-40 and Aβ1-42 and the monoclonal antibody to 17-25 residues of Aβ was used to detect Aβ peptide levels, and the values were expressed as the mean of six independent assays.
# acetylcholinesterase [5] = biological target: T1, acetylcholinesterase; conditions: as stated in Shaw et al., PNAS 2001; read-out: concentration of compound required to inhibit 50% acetylcholinesterase activity; cited from earlier work
# Target sequence in this assay (P22303 32-614, species assumed): as the sequence (P22303 32-614) above
# [6] = In vivo studies: cholinergic side effects after i.p. administration; conditions: rodents
# Protocol: This is a classical central (i.e., brain) cholinergic over-stimulation (overdrive) effect. Such a tremor persisted for approximately 1 hour.
Structure (SMILES),"level in the efficacy tests at end of twelve weeks versus First Level prior to treatment ([1]; patients with symptoms similar to Alzheimer's disease, oral capsules)",patients with an improvement over First Level at end of twelve-week period ([1]; treated group),activity as an inhibitor of human acetylcholinesterase (acetylcholinesterase [2]),βAPP levels compared to control ([3]; FIGS. 1 and 3),"βAPP levels compared to control ([3]; FIGS. 1 and 3, listed as positive isomer of phenserine)",levels of Aβ protein compared to control ([4]; FIGS. 2 and 3),"levels of Aβ protein compared to control ([4]; FIGS. 2 and 3, listed as positive isomer of phenserine)",IC50 (acetylcholinesterase [5]) [µM],symptoms observed ([6]; 20 mg/kg),persistence of tremor ([6]; 5 mg/kg),symptoms observed ([6]; 5 mg/kg (1 ml/kg in isotonic saline)),symptoms observed ([6]; 7.5 mg/kg),"animals killed when moribund, of 5 treated animals ([6]; 20 mg/kg)"
"CN1CC[C@]2(C)c3cc(OC(=O)Nc4ccccc4)ccc3N(C)[C@H]12.O=C(O)C(O)C(O)C(=O)O (single isomer, unassigned) [(+) phenserine tartrate, tartaric acid salt of the +enantiomer of N-phenyl carbanoyl eseroline]",maintain a level at least as great as the First Level,about 30%,,,,,,,,,,,
"CN1CC[C@]2(C)c3cc(OC(=O)Nc4ccccc4)ccc3N(C)C12 (single isomer, unassigned; (+)) [(+)-phenserine, (+) 9-N-phenylcarbinol esroline]",,,far less active,effective in reducing,reduces the production,effective in reducing,reduces the production,> 25,entirely without symptoms,,,,
"CN1CC[C@@]2(C)c3cc(OC(=O)Nc4ccccc4)ccc3N(C)C12 (single isomer, unassigned; (-)) [(−)-phenserine, (−) N-(−)-N phenyl canbamoyleseroline]",,,,reduces secreted and cellular βAPP levels in a concentration dependent manner; also recorded: decreased the βAPP levels,,reduced Aβ protein levels; also recorded: substantially reduced,,,incapacitated by severe tremor and peripheral side effects,approximately 1 hour,fine tremor,"Tremor, together with symptoms of peripheral over-stimulation (specifically, lacrimation and salivation)",2
